pIC50: −log10 of the molar value.
Legend:
[1] = molecular target: T1, PI3K-α (PIK3CA) H1047R mutant, p110α/p85α complex (Homo sapiens, UniProt P42336, H1047R); assay: PI3K-alpha kinase (PIK3CA) biochemical activity, ADP-Glo, H1047R mutant; conditions: Soy PI lipid substrate
T1 construct: Recombinant, catalytically active human full length PIK3KA Wild-type and H1047R mutant; 6×His (N); purchased EMD Millipore Sigma 14-792M
Outline: (§1)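 ADP formation measured by ADP-Glo luminescence after reaction at 27 °C to about 10% ATP turnover, using 20 uM ATP, 50 uM PIP2diC8 or soy PI lipid, HEPES pH 7.4 with MgCl2. Enzyme (1-5 nM WT or H1047R p110α/p85α) and compound preincubated 1 h first; 10-point 1:3 curves fitted four-parameter for IC50.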

[2] = molecular target: T2, PI3K-α (PIK3CA) wild-type (WT), p110α/p85α complex (Homo sapiens, UniProt P42336); assay: PI3K-alpha kinase (PIK3CA) biochemical activity, ADP-Glo, wild-type; conditions: Soy PI lipid substrate
T2 construct: Recombinant, catalytically active human full length PIK3KA Wild-type and H1047R mutant; 6×His (N); purchased EMD Millipore Sigma 14-602M
Outline: as §1

[3] = molecular target: PI3K-α (PIK3CA) in MDA-MB-453 cells (Homo sapiens, UniProt P42336); assay: PI3K-alpha kinase (PIK3CA) in vitro cell based assay, MDA-MB-453 cells, SureFire Ultra AlphaLisa; conditions: read-out: PI3K-α (PIK3CA) in vitro cell based assay IC50
Sequence of PI3K-α (PIK3CA) in MDA-MB-453 cells (P27986 2-724): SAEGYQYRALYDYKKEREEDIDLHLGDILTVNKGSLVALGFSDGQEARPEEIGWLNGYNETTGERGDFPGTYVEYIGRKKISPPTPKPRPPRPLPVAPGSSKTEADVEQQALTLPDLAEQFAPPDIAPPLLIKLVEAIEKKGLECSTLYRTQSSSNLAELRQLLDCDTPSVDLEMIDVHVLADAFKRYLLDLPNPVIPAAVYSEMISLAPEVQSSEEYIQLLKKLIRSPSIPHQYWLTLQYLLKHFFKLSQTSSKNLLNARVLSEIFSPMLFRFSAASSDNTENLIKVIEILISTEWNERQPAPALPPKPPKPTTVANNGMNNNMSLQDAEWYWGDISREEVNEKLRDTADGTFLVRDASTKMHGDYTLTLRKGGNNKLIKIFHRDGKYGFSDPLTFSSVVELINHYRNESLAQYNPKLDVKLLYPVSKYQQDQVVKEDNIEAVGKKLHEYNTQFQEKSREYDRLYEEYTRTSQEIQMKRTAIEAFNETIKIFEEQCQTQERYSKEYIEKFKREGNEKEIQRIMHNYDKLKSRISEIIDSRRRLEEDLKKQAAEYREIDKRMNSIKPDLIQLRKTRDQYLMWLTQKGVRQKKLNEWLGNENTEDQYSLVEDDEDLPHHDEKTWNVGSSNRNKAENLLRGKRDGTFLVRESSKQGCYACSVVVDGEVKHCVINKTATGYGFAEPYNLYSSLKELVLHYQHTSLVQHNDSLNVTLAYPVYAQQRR
Sequence of PI3K-α (PIK3CA) in MDA-MB-453 cells (P42336 whole entry): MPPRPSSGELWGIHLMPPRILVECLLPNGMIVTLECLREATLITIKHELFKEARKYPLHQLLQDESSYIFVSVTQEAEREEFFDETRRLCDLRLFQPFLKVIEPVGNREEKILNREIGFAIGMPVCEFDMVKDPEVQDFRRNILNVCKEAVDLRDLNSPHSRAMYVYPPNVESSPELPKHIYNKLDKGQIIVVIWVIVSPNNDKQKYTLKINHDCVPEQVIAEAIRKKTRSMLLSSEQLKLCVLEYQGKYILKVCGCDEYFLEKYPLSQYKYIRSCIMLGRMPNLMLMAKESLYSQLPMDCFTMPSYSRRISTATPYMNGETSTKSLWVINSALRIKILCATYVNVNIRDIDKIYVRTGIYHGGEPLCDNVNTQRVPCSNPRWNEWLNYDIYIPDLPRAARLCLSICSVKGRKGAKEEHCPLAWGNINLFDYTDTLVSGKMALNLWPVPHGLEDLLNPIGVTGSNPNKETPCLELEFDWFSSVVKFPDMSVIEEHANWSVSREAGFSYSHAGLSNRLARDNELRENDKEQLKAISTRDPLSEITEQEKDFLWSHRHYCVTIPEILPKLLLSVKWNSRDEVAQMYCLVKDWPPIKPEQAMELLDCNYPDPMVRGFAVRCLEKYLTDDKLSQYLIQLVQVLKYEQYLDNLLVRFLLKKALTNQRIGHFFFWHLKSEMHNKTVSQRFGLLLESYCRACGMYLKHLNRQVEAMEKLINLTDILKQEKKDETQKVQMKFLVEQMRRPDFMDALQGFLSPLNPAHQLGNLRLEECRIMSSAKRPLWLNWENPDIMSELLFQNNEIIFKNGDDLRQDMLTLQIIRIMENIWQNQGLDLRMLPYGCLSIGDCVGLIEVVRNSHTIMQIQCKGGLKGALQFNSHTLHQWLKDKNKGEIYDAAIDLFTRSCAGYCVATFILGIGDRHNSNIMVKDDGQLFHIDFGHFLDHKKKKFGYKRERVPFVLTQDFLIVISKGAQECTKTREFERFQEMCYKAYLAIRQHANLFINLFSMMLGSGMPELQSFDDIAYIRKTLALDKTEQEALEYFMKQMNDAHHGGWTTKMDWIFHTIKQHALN
Experimental: PI3K-Alpha Kinase (PIK3CA) Activity In Vitro Cell Based Assay and Determining IC50 Values for Inhibitors
The MDA-MB-453 (ATCC-HTB-131) cell line was obtained from the American Type Culture Collection (Manassas, VA). Cells were maintained in Dulbecco's Modified Eagle Media (DMEM, Gibco 11965-092) supplemented with 10% Fetal Bovine Serum, heat inactivated (FBS HI, Gibco 10082-147), 1× non-essential amino acids (NEAA, Gibco 11140-050), and 1 mM sodium pyruvate (Gibco 11360-070). Cultures were maintained in a humidified incubator at 37° C. under 5% CO2/95% air.
For compound testing in 0% FBS, MDA-MB-453 cells were seeded at a density of 1.5×10^4 cells per well in white 384-well plates in 20 μl of Minimum Essential Media (MEM) assay media with 1×NEAA, 1 mM sodium pyruvate, and 1 μg/mL human insulin (Sigma I9278). Compounds dissolved in 10 mM stock solutions in DMSO were serially diluted 1:3 in DMSO to generate a 10-point dilution series and plated using an acoustic liquid handler system (Echo 550 Series Liquid Handler, Labcyte). A 5× intermediate compound dilution plate in MEM with 1×NEAA and 1 mM sodium pyruvate (150 μM starting compound concentration in 1.5% DMSO) was then prepared. Five μl of the intermediate serially diluted compounds were added to the cell plate to final concentrations ranging from […] in 0.3% DMSO. 0.3% DMSO alone was used to establish the maximum (MAX) signal and GDC-0032 at a final concentration of 1 μM was used as a reference compound for the minimum (MIN) signal. After 3 hours treatment, the medium was removed, and the cells lysed in 10 μL of 1× SureFire Lysis buffer with shaking for 10 minutes at room temperature. The Acceptor Mix (Reaction Buffer 1+Reaction Buffer 2+Activation Buffer+SureFire Ultra Acceptor Beads) was prepared by diluting Activation buffer 25-fold in combined Reaction Buffer 1 and Reaction Buffer 2. The Acceptor beads were diluted 50-fold in the combined Reaction Buffers. Five μL of Acceptor Mix was added to each well, the plate was sealed and covered with foil and incubated for 1 hour at room temperature. The Donor Mix (dilution buffer+SureFire Ultra Donor Beads) was prepared by diluting Donor Beads 50-fold in dilution buffer. Five μL of the Donor Mix was added to each well and the plate sealed and covered with foil and incubated for 1 hour at room temperature in the dark. The plates were read on a Neo2 plate reader instrument from Biotek using standard AlphaLisa settings. Compounds were tested in duplicate and the average % inhibition at each compound concentration was used to generate a single dose response curve. The data were processed using the Genedata-Screener tool. Relative IC50 values were determined using luminescence units by calculating percent inhibition with respect to the in-plate “MIN” (GDC-0032 reference control) and “MAX” (DMSO) controls. The data was analyzed using a 4-parameter nonlinear logistic equation (four-parameter logistic concentration-response curve): Y=bottom+[(top−bottom)/1+(X/IC50)slope] where Y=% inhibition, X=concentration of inhibitor, bottom=minimum value of y attained by curve-fit, top=maximum value of y attained by curve-fit and slope=steepness of curve at the IC50. % Inhibition=[(signal at X−median Min)/(median Max−median Min)]×100 IC50: concentration of compound that reduces a given response (ligand binding, enzyme response) by 50%. Relative IC50: concentration giving half the compound's maximum response.

T1 sequence (P42336 whole entry H1047R): as the sequence (P42336 whole entry) above, with H1047R counted along it
T1 sequence (P27986 whole entry partner): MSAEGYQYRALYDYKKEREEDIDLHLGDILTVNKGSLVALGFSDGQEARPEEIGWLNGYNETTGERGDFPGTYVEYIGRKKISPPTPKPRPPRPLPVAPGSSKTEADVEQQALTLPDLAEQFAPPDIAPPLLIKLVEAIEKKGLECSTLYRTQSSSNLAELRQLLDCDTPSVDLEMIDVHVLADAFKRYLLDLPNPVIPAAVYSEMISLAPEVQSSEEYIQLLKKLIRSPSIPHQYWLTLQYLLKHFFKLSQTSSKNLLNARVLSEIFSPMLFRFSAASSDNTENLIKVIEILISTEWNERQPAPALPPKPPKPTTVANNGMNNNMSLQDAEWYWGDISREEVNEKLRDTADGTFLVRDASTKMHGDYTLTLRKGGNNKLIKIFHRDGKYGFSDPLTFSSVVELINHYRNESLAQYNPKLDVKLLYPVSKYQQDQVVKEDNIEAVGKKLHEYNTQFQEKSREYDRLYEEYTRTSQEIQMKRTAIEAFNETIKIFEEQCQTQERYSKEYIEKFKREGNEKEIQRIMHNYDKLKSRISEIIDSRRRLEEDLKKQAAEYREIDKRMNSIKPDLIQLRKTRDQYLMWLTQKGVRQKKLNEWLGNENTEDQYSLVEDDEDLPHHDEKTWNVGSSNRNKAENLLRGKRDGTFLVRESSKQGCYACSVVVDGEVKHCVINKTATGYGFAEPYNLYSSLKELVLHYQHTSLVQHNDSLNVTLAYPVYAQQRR

Structure (SMILES)	pIC50 [1]	pIC50 [2]	pIC50 [3]
Cc1cc([C@@H](C)Nc2ccccc2C(=O)O)c2oc(-c3cc4cnccc4o3)c(C(F)(F)F)c(=O)c2c1 [Example 209, 2-[[(1R)-1-[2-Furo[3,2-c]pyridin-2-yl-6-methyl-4-oxo-3-(trifluoromethyl)chromen-8-yl]ethyl]amino]benzoic acid]	> 6.30	6.00 to 6.30	> 7.30
Cc1cc([C@@H](C)Nc2cccc(F)c2C(=O)O)c2oc(-c3ccc4c(cnn4C)c3)cc(=O)c2c1 [Example 197, 2-Fluoro-6-[[(1R)-1-[6-methyl-2-(1-methylindazol-5-yl)-4-oxo-chromen-8-yl]ethyl]amino]benzoic acid]	> 6.30	6.00 to 6.30	> 7.30
Cc1cc(C(C)Nc2ccccc2C(=O)O)c2oc(-c3cc4cccnc4cn3)cc(=O)c2c1 (single isomer, unassigned) [Example 187, 2-[1-[6-Methyl-2-(1,7-naphthyridin-6-yl)-4-oxo-chromen-8-yl]ethylamino]benzoic acid]	> 6.30	5.30 to 6.00	> 7.30
Cc1cc(C(C)Nc2ccccc2C(=O)O)c2oc(-c3cccc4nn(C)cc34)cc(=O)c2c1 (single isomer, unassigned) [Example 111, 2-[1-[6-Methyl-2-(2-methylindazol-4-yl)-4-oxo-chromen-8-yl]ethylamino]benzoic acid]	> 6.30	6.00 to 6.30	6.30 to 7.00
Cc1cc(C(C)Nc2ccccc2C(=O)O)c2oc(-c3ccc4c(C)nn(C)c4c3)cc(=O)c2c1 (single isomer, unassigned) [Example 27, 2-[1-[2-(1,3-Dimethylindazol-6-yl)-6-methyl-4-oxo-chromen-8-yl]ethylamino]benzoic acid]	> 6.30	6.00 to 6.30	> 7.30
Cc1cc(C(C)Nc2ccccc2C(=O)O)c2oc(-c3ccn4cc(C)nc4c3)cc(=O)c2c1 (single isomer, unassigned) [Example 3, 2-[1-[6-Methyl-2-(2-methylimidazo[1,2-a]pyridin-7-yl)-4-oxo-chromen-8-yl]ethylamino]benzoic acid]	> 6.30	5.30 to 6.00	7.00 to 7.30
Cc1cc(C(C)Nc2ccccc2C(=O)O)c2oc(-c3ccc4cc[nH]c4n3)cc(=O)c2c1 (single isomer, unassigned) [Example 4, 2-[1-[6-Methyl-4-oxo-2-(1H-pyrrolo[2,3-b]pyridin-6-yl)chromen-8-yl]ethylamino]benzoic acid]	> 6.30	6.00 to 6.30	> 7.30
Cc1cc(C(C)Nc2ccccc2C(=O)O)c2oc(-c3cc4cnccc4o3)cc(=O)c2c1 (single isomer, unassigned) [Example 22, 2-[1-(2-Furo[3,2-c]pyridin-2-yl-6-methyl-4-oxo-chromen-8-yl)ethylamino]benzoic acid]	> 6.30	6.00 to 6.30	> 7.30
Cc1cc(C(C)Nc2ccc(Cl)nc2C(=O)O)c2oc(-c3ccc4c(c3)c(C)nn4C)cc(=O)c2c1 (single isomer, unassigned) [Example 224, 6-Chloro-3-[1-[2-(1,3-dimethylindazol-5-yl)-6-methyl-4-oxo-chromen-8-yl]ethylamino]pyridine-2-carboxylic acid]	> 6.30	> 6.30	> 7.30

Next, values leading:

pIC50 [1]	pIC50 [2]	pIC50 [3]	Structure (SMILES)
5.30 to 6.00	5.30 to 6.00	6.30 to 7.00	Cc1cc([C@@H](C)Nc2cccnc2C(=O)O)c2oc(-c3ccc4nc(C)sc4n3)c(C)c(=O)c2c1 [Example 243, 3-[[(1R)-1-[3,6-Dimethyl-2-(2-methylthiazolo[5,4-b]pyridin-5-yl)-4-oxo-chromen-8-yl]ethyl]amino]pyridine-2-carboxylic acid]
> 6.30	> 6.30	> 7.30	Cc1cc([C@@H](C)Nc2ccc(Cl)nc2C(=O)O)c2oc(-c3cc4cnccc4o3)c(C)c(=O)c2c1 [Example 214, 6-Chloro-3-[[(1R)-1-(2-furo[3,2-c]pyridin-2-yl-3,6-dimethyl-4-oxo-chromen-8-yl)ethyl]amino]pyridine-2-carboxylic acid]
> 6.30	6.00 to 6.30	> 7.30	Cc1cc([C@@H](C)Nc2ccc(Cl)nc2C(=O)O)c2oc(-c3ccc4nc(C)sc4c3)c(C)c(=O)c2c1 [Example 246, 6-Chloro-3-[[(1R)-1-[3,6-dimethyl-2-(2-methyl-l,3-benzothiazol-6-yl)-4-oxo-chromen-8-yl]ethyl]amino]pyridine-2-carboxylic acid]
5.30 to 6.00	5.30 to 6.00	< 6.30	Cc1cc(C(C)Nc2cccc(F)c2C(=O)O)c2oc(-c3ccc4nn(C)cc4c3)cc(=O)c2c1 (single isomer, unassigned) [Example 171, 2-Fluoro-6-[1-[6-methyl-2-(2-methylindazol-5-yl)-4-oxo-chromen-8-yl]ethylamino]benzoic acid]
> 6.30	6.00 to 6.30	7.00 to 7.30	Cc1cc(C(C)Nc2ccccc2C(=O)O)c2oc(-c3ccc4nc(C#N)ccc4c3)cc(=O)c2c1 (single isomer, unassigned) [Example 207, 2-[1-[2-(2-Cyano-6-quinolyl)-6-methyl-4-oxo-chromen-8-yl]ethylamino]benzoic acid]
> 6.30	> 6.30	> 7.30	Cc1cc([C@@H](C)Nc2ccc(F)cc2C(=O)O)c2oc(-c3ccc4c(cnn4C)c3)c(C)c(=O)c2c1 [Example 260, 2-[[(1R)-1-[3,6-Dimethyl-2-(1-methylindazol-5-yl)-4-oxo-chromen-8-yl]ethyl]amino]-5-fluoro-benzoic acid]
> 6.30	5.30 to 6.00	> 7.30	Cc1cc(C(C)Nc2ccccc2C(=O)O)c2oc(-c3ccc4nn(C)cc4n3)cc(=O)c2c1 (single isomer, unassigned) [Example 54, 2-[1-[6-Methyl-2-(2-methylpyrazolo[4,3-b]pyridin-5-yl)-4-oxo-chromen-8-yl]ethylamino]benzoic acid]
5.30 to 6.00	< 5.00	6.30 to 7.00	Cc1cc([C@@H](C)Nc2cccnc2C(=O)O)c2oc(-c3cc(C)c4nn(C)cc4c3)cc(=O)c2c1 [Example 231, 3-[[(1R)-1-[2-(2,7-Dimethylindazol-5-yl)-6-methyl-4-oxo-chromen-8-yl]ethyl]amino]pyridine-2-carboxylic acid]
5.30 to 6.00	5.30 to 6.00	6.30 to 7.00	Cc1cc([C@@H](C)Nc2ccc(C(F)(F)F)cc2C(=O)O)c2oc(-c3ccc4nc(C)sc4n3)c(C)c(=O)c2c1 [Example 234, 2-[[(1R)-1-[3,6-Dimethyl-2-(2-methylthiazolo[5,4-b]pyridin-5-yl)-4-oxo-chromen-8-yl]ethyl]amino]-5-(trifluoromethyl)benzoic acid]
> 6.30	> 6.30	> 7.30	Cc1cc([C@@H](C)Nc2ccc(F)cc2C(=O)O)c2oc(-c3ccc4nn(C)cc4c3)c(C)c(=O)c2c1 [Example 253, 2-[[(1R)-1-[3,6-Dimethyl-2-(2-methylindazol-5-yl)-4-oxo-chromen-8-yl]ethyl]amino]-5-fluoro-benzoic acid]

From US11878970B2, “Allosteric chromenone inhibitors of phosphoinositide 3-kinase (PI3K) for the treatment of disease” (Petra Pharma Corporation, priority 2021, dated 2024)
